Patent publication US6696093B2, “Aldehyde donors for stabilizing peroxides” (Lonza Inc., priority 2000, dated 2004)

Tests used:
[1] = H2O2 stabilization in papermaking process water (Example 1); conditions: for H2O2 residual: 45° C.
Method: Process waters from a papermaking facility which uses recycled fibers were collected during a bleaching stage and allowed to stand for 2 hours to achieve total depletion of the hydrogen peroxide in the process waters.
Into five separate Pyrex beakers were placed 400 ml of the process water. One was retained as a control. 150 and 300 ppm of an aqueous solution containing 40% by weight of 1,3-bis(hydroxymethyl)-5,5-dimethylhydantoin (DMDMH) (Dantogard®) were added to two beakers for a total concentration of 60 ppm and 120 ppm of DMDMH, respectively. On an equivalent aldehyde basis, this corresponds to 0.65 mEq/l and 1.30 mEq/l, respectively. 150 and 300 ppm of an aqueous solution containing […] of glutaraldehyde were added to the remaining two beakers for a total concentration of 83 ppm and 166 ppm of glutaraldehyde, respectively. On an equivalent aldehyde basis, this corresponds to 1.66 mEq/l and 3.32 mEq/l, respectively. The samples were placed in a controlled water bath at 45° C. and stirred with a magnetic stirrer set on slow agitation.
To all the test samples, a sufficient volume of a 1% (by weight) hydrogen peroxide (H2O2) aqueous solution was added to achieve a concentration of 20-25 ppm of hydrogen peroxide in the samples. At regular time intervals, over a 45 minute period, aliquots were removed and analyzed for peroxide residual (i.e. the concentration of hydrogen peroxide) using a thiosulfate titration kit (HACH Test Kit, Model HYP-1, available from Hach Company of Loveland, Colo.). The results, shown in Table 1, correlate to the amount of peroxide present at the specific time interval, expressed as ppm of hydrogen peroxide.

[2] = biological target: T1, catalase (Aspergillus niger, UniProt P55303); assay: Catalase promoted hydrogen peroxide decomposition in phosphate buffer pH 7.0 (Example 6); assay type: biochemical, A. niger; conditions: 526 ppm product
T1 construct: purchased Sigma Aldrich C-3515; host or cells: A. niger derived
Method: Hydrogen peroxide solutions containing 470 ppm active peroxide in sterile Butterfield's phosphate buffer (pH=7.0) were treated with 1.2 units of catalase (A. niger available from Sigma Aldrich of St. Louis, Mo. (C-3515)) alone or with 263 or 526 ppm of Dantogard® 2000, available from Lonza Inc. of Fair Lawn, N.J., or 526 ppm of an aqueous 49% glutaraldehyde solution. Dantogard® 2000 is a 65% aqueous mixture of DMDMH, MMDMH and DMH having a minimal free formaldehyde concentration. The peroxide decomposition rate was monitored during the decrease in peroxide concentration from 390 to 350 ppm by ultraviolet absorbance at 240 nm. The temperature was 23° C.

T1 sequence (P55303 whole entry): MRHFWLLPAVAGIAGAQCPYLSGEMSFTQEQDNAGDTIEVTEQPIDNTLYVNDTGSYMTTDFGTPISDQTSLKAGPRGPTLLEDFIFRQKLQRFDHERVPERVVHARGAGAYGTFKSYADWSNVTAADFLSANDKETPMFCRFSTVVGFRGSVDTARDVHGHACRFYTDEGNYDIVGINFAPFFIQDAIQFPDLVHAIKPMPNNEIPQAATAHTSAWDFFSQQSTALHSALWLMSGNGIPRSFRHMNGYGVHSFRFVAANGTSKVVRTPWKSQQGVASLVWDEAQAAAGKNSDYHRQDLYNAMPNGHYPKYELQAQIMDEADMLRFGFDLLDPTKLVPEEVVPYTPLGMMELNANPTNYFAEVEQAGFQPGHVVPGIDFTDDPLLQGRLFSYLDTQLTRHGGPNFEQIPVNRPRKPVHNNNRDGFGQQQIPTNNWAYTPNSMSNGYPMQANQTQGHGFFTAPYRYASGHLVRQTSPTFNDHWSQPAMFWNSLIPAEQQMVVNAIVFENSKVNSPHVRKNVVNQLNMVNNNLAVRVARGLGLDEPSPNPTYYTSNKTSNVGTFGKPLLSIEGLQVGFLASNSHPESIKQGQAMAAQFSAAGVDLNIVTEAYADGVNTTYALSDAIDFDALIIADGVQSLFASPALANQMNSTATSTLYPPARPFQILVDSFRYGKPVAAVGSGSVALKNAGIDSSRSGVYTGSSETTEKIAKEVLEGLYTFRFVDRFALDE

CC1(C)C(=O)N(CO)C(=O)N1CO [DMDMH, 1,3-bis(hydroxymethyl)-5,5-dimethylhydantoin]
H2O2 residual ([1]; 60 ppm DMDMH, 0 min): 25 ppm H2O2
H2O2 residual ([1]; 60 ppm DMDMH, 10 min): 24 ppm H2O2
H2O2 residual ([1]; 60 ppm DMDMH, 15 min): 23 ppm H2O2
H2O2 residual ([1]; 60 ppm DMDMH, 20 min): 22 ppm H2O2
H2O2 residual ([1]; 60 ppm DMDMH, 30 min): 18 ppm H2O2
H2O2 residual ([1]; 60 ppm DMDMH, 40 min): 16 ppm H2O2
H2O2 residual ([1]; 60 ppm DMDMH, 45 min): 15 ppm H2O2
H2O2 residual ([1]; 120 ppm DMDMH, 0 min): 26 ppm H2O2
H2O2 residual ([1]; 120 ppm DMDMH, 10 min): 24 ppm H2O2
H2O2 residual ([1]; 120 ppm DMDMH, 15 min): 23 ppm H2O2
H2O2 residual ([1]; 120 ppm DMDMH, 20 min): 20 ppm H2O2
H2O2 residual ([1]; 120 ppm DMDMH, 30 min): 18 ppm H2O2
H2O2 residual ([1]; 120 ppm DMDMH, 40 min): 17 ppm H2O2
H2O2 residual ([1]; 120 ppm DMDMH, 45 min): 16 ppm H2O2
peroxide stabilization compared to glutaraldehyde ([1]; Table 1 comparison, ppm product basis): superior peroxide stabilization compared to glutaraldehyde

O=CCCCC=O [Glutaraldehyde, glutaraldehyde]
H2O2 residual ([1]; 83 ppm glutaraldehyde, 0 min): 25 ppm H2O2
H2O2 residual ([1]; 83 ppm glutaraldehyde, 10 min): 24 ppm H2O2
H2O2 residual ([1]; 83 ppm glutaraldehyde, 15 min): 22 ppm H2O2
H2O2 residual ([1]; 83 ppm glutaraldehyde, 20 min): 20 ppm H2O2
H2O2 residual ([1]; 83 ppm glutaraldehyde, 30 min): 16 ppm H2O2
H2O2 residual ([1]; 83 ppm glutaraldehyde, 40 min): 14 ppm H2O2
H2O2 residual ([1]; 83 ppm glutaraldehyde, 45 min): 12 ppm H2O2
H2O2 residual ([1]; 166 ppm glutaraldehyde, 0 min): 26 ppm H2O2
H2O2 residual ([1]; 166 ppm glutaraldehyde, 10 min): 24 ppm H2O2
H2O2 residual ([1]; 166 ppm glutaraldehyde, 15 min): 21 ppm H2O2
H2O2 residual ([1]; 166 ppm glutaraldehyde, 20 min): 19 ppm H2O2
H2O2 residual ([1]; 166 ppm glutaraldehyde, 30 min): 17 ppm H2O2
H2O2 residual ([1]; 166 ppm glutaraldehyde, 40 min): 15 ppm H2O2
H2O2 residual ([1]; 166 ppm glutaraldehyde, 45 min): 13 ppm H2O2
Peroxide Decomposition Rate ([2]; 1.2 units catalase, pH 7.0, 23° C., peroxide 390 to 350 ppm): 0.230 ppm/sec
Normalized Decomposition Rate ([2]; control = 1.00): 1.0
